Reference: US8236854B2, “Lipid-improving agent and composition containing lipid-improving agent” (Suntory Holdings Limited, priority 2003, dated 2012)
Marks after values point to notes of the source that are not given here.

Experiments:
Format in all cases: in vivo, rat
Male rats of SD strain [1] = experiment: Serum lipid lowering action of structured lipids in high-fat food, two weeks (Example 6); conditions: High-TG Food (20% fat) with 7.5% structured lipid, 2 weeks
Excerpt: Influence of arachidonic acid chemically synthesized in Example 2 on serum lipid lowering action of the constituting fatty acid was investigated in a high-fat foods.
Male rats of SD strain of 5 weeks age were divided into eight groups each comprising five rats, acclimatized for one week with a standard solid feed and ingested for two weeks with the experimental food as shown in Table 7 and Table 8 (normal, high-TG, 7.5% PPP, 7.5% PAP, 7.5% PPA, 7.5% 8P8, 7.5% 8A8 and 7.5% 88A). Incidentally, the condition for a high-fat food was that the rate of fat/oil in the feed was made 20%, beef tallow abundant in saturated fatty acid was used as a base and 2% of corn oil were compounded to avoid the deficiency of essential fatty acids. In the control group, an experimental food (high-TG food, 20% fat/oil food) compounded with 18% of […] (20% as a result of addition of 2% of corn oil) was used.

Male rats of SD strain [2] = experiment: Ingestion of experimental food with 10% structured lipid for two weeks: body weight, liver weight, serum lipid concentration (Example 5); conditions: 10% structured lipid in experimental food, 2 weeks
Excerpt: (§1) Influence of the structured lipid where arachidonic acid chemically synthesized in Example 2 as a constituting fatty acid on expression of lipid metabolism-related gene was investigated using rats.
(§2) Male rats of SD strain of 5 weeks age were divided into four groups each comprising five rats, acclimatized for one week with a standard solid feed and ingested for two weeks with an experimental food (10% PPA and 10% PAP; Table 5) compounded with 10% of arachidonic acid-containing structured lipid (PPA or PAP). In the control group, an experimental food (10% PPP) compounded with 10% of PPP was used. In ingestion of the food, a pair-feeding was conducted and body weight was measured every day.

PPARα mRNA of liver = experiment: Influence of structured lipid on liver PPARα mRNA expression (Example 5); conditions: rats, 10% PAP food, 2 weeks
Excerpt: as §1, §2
Two molecules of palmitic acid and one molecule of 2-AG incorporated into epidermal cells of small intestine are reconstructed to a triglyceride(s) (in that case, although there is a possibility of bonding of other inherent fatty acids existing in the epidermal cells of the small intestine to 1,3-positions, arachidonic acid bonded to 2-position is retained), incorporated into chylomicron, transferred to peripheral tissues together with secretion of lymph and blood flow and finally incorporated into liver.

[3] = tested on: target gene of PPAR of jejunum; experiment: Influence of structured lipid on expression of target gene of PPAR of jejunum (Example 5); conditions: rats, 10% structured lipid food, compared with PPP food control group
Excerpt: as §1, §2
Influence of structured lipid on expression of target gene of PPAR of jejunum is shown (FIG. 4). From PPA, each one molecule of palmitic acid and arachidonic acid is dissociated and absorbed by the action of pancreatic lipase specific to 1,3-positions and arachidonic acid having a particularly strong PPAR ligand activity acts as a PPARα ligand in small intestine and, therefore, expressed amount of target gene of PPAR increased in a group of 10% PPA food as compared with a PPP food group which is a control group. […]

## CCCCC/C=C\C/C=C\C/C=C\C/C=C\CCCC(=O)OC(COC(=O)CCCCCCC)COC(=O)CCCCCCC [8A8, 1,3-dioctanoyl-2-arachidonoyl glyceride]
Male rats of SD strain [1]
  Serum Total Cholesterol Concn: 85.6 ± 2.5^b μmol/dl
  Serum Triglyceride(s) Concn: 63.3 ± 4.1^a μmol/dl

## CCCCCCCCCCCCCCCC(=O)OC(COC(=O)CCCCCCC)COC(=O)CCCCCCC [8P8, 1,3-capryloyl-2-palmitoyl-glyceride, reference compound]
Male rats of SD strain [1]
  Serum Total Cholesterol Concn: 99.7 ± 4.2^b μmol/dl
  Serum Triglyceride(s) Concn: 101.8 ± 5.3^b μmol/dl

## CCCCC/C=C\C/C=C\C/C=C\C/C=C\CCCC(=O)OCC(COC(=O)CCCCCCC)OC(=O)CCCCCCC (centres unmarked) [88A, 1(3),2-dioctanoyl-3(1)-arachidonoyl glyceride]
Male rats of SD strain [1]
  Serum Total Cholesterol Concn: 92.9 ± 2.9^a μmol/dl
  Serum Triglyceride(s) Concn: 83.1 ± 3.6^a μmol/dl

## CCCCC/C=C\C/C=C\C/C=C\C/C=C\CCCC(=O)OC(COC(=O)CCCCCCCCCCCCCCC)COC(=O)CCCCCCCCCCCCCCC [PAP, 1,3-dipalmitoyl-2-arachidonoyl glyceride]
Male rats of SD strain [2]
  Serum Total Cholesterol Concn: 178 ± 15.3^ab μmol/dl
  Serum Triglyceride(s) Concn: 174 ± 7.5^b μmol/dl
PPARα mRNA of liver
  Expressed amount of PPARα mRNA of liver: significantly increased
Male rats of SD strain [1]
  Serum Total Cholesterol Concn: 91.7 ± 3.3^a μmol/dl
  Serum Triglyceride(s) Concn: 80.4 ± 3.9^a μmol/dl

## CCCCC/C=C\C/C=C\C/C=C\C/C=C\CCCC(=O)OCC(COC(=O)CCCCCCCCCCCCCCC)OC(=O)CCCCCCCCCCCCCCC (centres unmarked) [PPA, 1(3),2-dipalmitoyl-3(1)-arachidonoyl glyceride]
Male rats of SD strain [2]
  Serum Total Cholesterol Concn: 150 ± 16.6^b μmol/dl
  Serum Triglyceride(s) Concn: 173 ± 6.6^b μmol/dl
[3]
  Expressed amount of target gene of PPAR in jejunum: increased
Male rats of SD strain [1]
  Serum Total Cholesterol Concn: 92.4 ± 4.9^a μmol/dl
  Serum Triglyceride(s) Concn: 93.1 ± 1.3^a μmol/dl

## CCCCCCCCCCCCCCCC(=O)OCC(COC(=O)CCCCCCCCCCCCCCC)OC(=O)CCCCCCCCCCCCCCC [PPP, reference compound]
Male rats of SD strain [2]
  Serum Total Cholesterol Concn: 201 ± 9.2^a μmol/dl
  Serum Triglyceride(s) Concn: 316 ± 64.3^b μmol/dl
Male rats of SD strain [1]
  Serum Total Cholesterol Concn: 104.3 ± 5.9^b μmol/dl
  Serum Triglyceride(s) Concn: 109.2 ± 6.8^b μmol/dl
